The source of these data is article PMC10360169 (Frontiers in Immunology, 2023).

Like-named read-outs stand apart in the source and are kept apart here.

The subject of the assay is Acar3. It counts as binding, great reed warbler Acrocephalus arundinaceus.
[1] abbreviates: Table S5, half-life estimated from dissociation in scintillation proximity assay, Acar3.
The mark [2] stands for this setting: Table S1, top 94 PSCPL-scoring peptides, SPA, 10µM peptide, 125I β2m, folding over night at 18°C, dissociation measured up to 24 hours at 37°C.

For AANMYIYPL [9-mer peptide], the “Stability T½ (h), peptide - Acar3” value under setting [1] is given as 0.1 h. In the case of AEMRETHWL [9-mer peptide], under setting [2], the “Stability T½ of Acar3 in complex with the peptide” value (from here on “Stability T½ of Acar3 in complex”) stood at 300 min. The “Stability T½ (h), peptide - Acar3” value under setting [1] was 5.0 h. As for AKIEAPLLL [9-mer peptide], the “Stability T½ of Acar3 in complex” value under setting [2] worked out at 150 min. Besides, the “Stability T½ (h), peptide - Acar3” value under setting [1] was 2.5 h. On the same counts, the results for AMAAGLSSL [9-mer peptide] are 18 min and 0.3 h. In the case of AMMWRIAQL [9-mer peptide], the “Stability T½ of Acar3 in complex” value under setting [2] amounted to 18 min. The “Stability T½ (h), peptide - Acar3” value under setting [1] is 0.3 h. On the same counts, the results for AMPKTIYEL [9-mer peptide] are 228 min and 3.8 h. On the same counts, the results for AVMFFPFWF [9-mer peptide] are 36 min and 0.6 h. In the same order, the values of ETMKPAAMV [9-mer peptide] are 162 min and 2.7 h. With FHMSKPSDL [9-mer peptide], the “Stability T½ of Acar3 in complex” value under setting [2] came to 48 min. Besides, under setting [1], the “Stability T½ (h), peptide - Acar3” value is listed as 0.8 h. On the same counts, the results for FLDKGTYTL [9-mer peptide] are 18 min and 0.3 h.

In the case of FLLENAAYL [9-mer peptide], the “Stability T½ of Acar3 in complex” value under setting [2] was 72 min. Besides, under setting [1], the “Stability T½ (h), peptide - Acar3” value was 1.2 h.

In the case of FLQGAKWYL [9-mer peptide], under setting [1], the “Stability T½ (h), peptide - Acar3” value is 0.1 h. Consider FMFDYIPPV [9-mer peptide], for which, under setting [1], the “Stability T½ (h), peptide - Acar3” value is recorded as 0.2 h.

Turning to FMIVNNFPV [9-mer peptide], the “Stability T½ of Acar3 in complex” value under setting [2] came out at 18 min. Also, the “Stability T½ (h), peptide - Acar3” value under setting [1] is reported as 0.3 h. In the same order, the values of FQANMFLTL [9-mer peptide] are 72 min and 1.2 h.

For FQMGGIGPM [9-mer peptide], under setting [2], the “Stability T½ of Acar3 in complex” value is 42 min. Besides, the “Stability T½ (h), peptide - Acar3” value under setting [1] is 0.7 h. In the same order, the values of FRMLAWHVL [9-mer peptide] are 18 min and 0.3 h. On to GAMYALANF [9-mer peptide], for which the “Stability T½ of Acar3 in complex” value under setting [2] was determined as 36 min. The “Stability T½ (h), peptide - Acar3” value under setting [1] is given as 0.6 h. In the same order, the values of GLAATSFPL [9-mer peptide] are 90 min and 1.5 h. In the same order, the values of GMNVTAPAL [9-mer peptide] are 18 min and 0.3 h.

For the sequence GMVGAEFSL [9-mer peptide], the “Stability T½ of Acar3 in complex” value under setting [2] turned out to be 456 min. The “Stability T½ (h), peptide - Acar3” value under setting [1] was 7.6 h. Take GRLVTVNPF [9-mer peptide]: the “Stability T½ of Acar3 in complex” value under setting [2] worked out at 30 min. Besides, under setting [1], the “Stability T½ (h), peptide - Acar3” value is on record as 0.5 h.

With HELSLFWPL [9-mer peptide], the “Stability T½ of Acar3 in complex” value under setting [2] was determined as 66 min. Moreover, the “Stability T½ (h), peptide - Acar3” value under setting [1] is reported as 1.1 h. In the same order, the values of ILMEHIHKL [9-mer peptide] are 12 min and 0.2 h.

On to IMDASSFTL [9-mer peptide], for which the “Stability T½ of Acar3 in complex” value under setting [2] came out at 84 min. Further, the “Stability T½ (h), peptide - Acar3” value under setting [1] is recorded as 1.4 h.

For KAMRPWQSF [9-mer peptide], the “Stability T½ of Acar3 in complex” value under setting [2] was determined as 24 min. In addition, under setting [1], the “Stability T½ (h), peptide - Acar3” value is reported as 0.4 h. On the same counts, the results for KAMSTPFSL [9-mer peptide] are 318 min and 5.3 h.

For KIMQVDRPM [9-mer peptide], under setting [2], the “Stability T½ of Acar3 in complex” value worked out at 156 min. Also, the “Stability T½ (h), peptide - Acar3” value under setting [1] is 2.6 h.

Consider KLMDVVYSI [9-mer peptide], for which, under setting [2], the “Stability T½ of Acar3 in complex” value was 24 min. Besides, the “Stability T½ (h), peptide - Acar3” value under setting [1] is recorded as 0.4 h. In the same order, the values of KMAAFPETL [9-mer peptide] are 24 min and 0.4 h. In the same order, the values of KMNAKAATL [9-mer peptide] are 126 min and 2.1 h. On to KQLELFWVI [9-mer peptide], for which the “Stability T½ (h), peptide - Acar3” value under setting [1] was 0.2 h. Take KQLESVMYL [9-mer peptide]: the “Stability T½ of Acar3 in complex” value under setting [2] amounted to 78 min. In addition, the “Stability T½ (h), peptide - Acar3” value under setting [1] was 1.3 h. In the case of KQLEYSWVL [9-mer peptide], under setting [1], the “Stability T½ (h), peptide - Acar3” value is listed as 0.1 h. Regarding KQMSQPYAV [9-mer peptide], the “Stability T½ of Acar3 in complex” value under setting [2] came out at 240 min. The “Stability T½ (h), peptide - Acar3” value under setting [1] is reported as 4.0 h. On to KTAAAAAAF [9-mer peptide], for which the “Stability T½ of Acar3 in complex” value under setting [2] was found to be 24 min. Further, the “Stability T½ (h), peptide - Acar3” value under setting [1] is given as 0.4 h.

As for KTMMQAHDL [9-mer peptide], under setting [2], the “Stability T½ of Acar3 in complex” value came to 594 min. The “Stability T½ (h), peptide - Acar3” value under setting [1] was 9.9 h.

LDMNVVKEL [9-mer peptide]: under setting [2], the “Stability T½ of Acar3 in complex” value turned out to be 36 min. For the same sequence, the “Stability T½ (h), peptide - Acar3” value under setting [1] was 0.6 h. In the same order, the values of LMDENTYAM [9-mer peptide] are 24 min and 0.4 h. With LMMNGTSAM [9-mer peptide], under setting [2], the “Stability T½ of Acar3 in complex” value worked out at 48 min. Moreover, the “Stability T½ (h), peptide - Acar3” value under setting [1] is 0.8 h.

For LPLPAQQPF [9-mer peptide], the “Stability T½ of Acar3 in complex” value under setting [2] worked out at 18 min. Further, under setting [1], the “Stability T½ (h), peptide - Acar3” value is listed as 0.3 h. In the same order, the values of LPRWPPPQL [9-mer peptide] are 18 min and 0.3 h. In the same order, the values of LQMLGENVL [9-mer peptide] are 156 min and 2.6 h. In the same order, the values of LRWLAKSFF [9-mer peptide] are 30 min and 0.5 h.

With LTMNLVSDI [9-mer peptide], the “Stability T½ of Acar3 in complex” value under setting [2] amounted to 270 min. For the same sequence, the “Stability T½ (h), peptide - Acar3” value under setting [1] was 4.5 h. Regarding MMMPMFNAF [9-mer peptide], under setting [2], the “Stability T½ of Acar3 in complex” value worked out at 432 min. Also, the “Stability T½ (h), peptide - Acar3” value under setting [1] is 7.2 h. On the same counts, the results for MMMSTAVAF [9-mer peptide] are 438 min and 7.3 h. In the same order, the values of MMWATAQAL [9-mer peptide] are 48 min and 0.8 h. In the same order, the values of MPMSMPIPM [9-mer peptide] are 192 min and 3.2 h. For the sequence MTYKAAFDL [9-mer peptide], under setting [2], the “Stability T½ of Acar3 in complex” value worked out at 108 min. For the same sequence, the “Stability T½ (h), peptide - Acar3” value under setting [1] is given as 1.8 h. In the same order, the values of QAYAAPQLF [9-mer peptide] are 90 min and 1.5 h. On the same counts, the results for QMSWLPLCV [9-mer peptide] are 36 min and 0.6 h. On the same counts, the results for QQMFPGAPF [9-mer peptide] are 24 min and 0.4 h. On to QWALLPYLF [9-mer peptide], for which, under setting [2], the “Stability T½ of Acar3 in complex” value was determined as 594 min. Moreover, the “Stability T½ (h), peptide - Acar3” value under setting [1] was 9.9 h.

As to RATQPAAEF [9-mer peptide], the “Stability T½ of Acar3 in complex” value under setting [2] came out at 96 min. Further, the “Stability T½ (h), peptide - Acar3” value under setting [1] is listed as 1.6 h. In the same order, the values of REMINHYQV [9-mer peptide] are 42 min and 0.7 h.

As for REWSGLNYL [9-mer peptide], under setting [2], the “Stability T½ of Acar3 in complex” value stood at 114 min. Besides, under setting [1], the “Stability T½ (h), peptide - Acar3” value is 1.9 h. In the same order, the values of RMAMIPRTL [9-mer peptide] are 30 min and 0.5 h.

Consider RMMATKDSF [9-mer peptide], for which, under setting [2], the “Stability T½ of Acar3 in complex” value came out at 24 min. Further, under setting [1], the “Stability T½ (h), peptide - Acar3” value is recorded as 0.4 h. In the case of RMMGKTNPL [9-mer peptide], the “Stability T½ (h), peptide - Acar3” value under setting [1] is on record as 0.2 h. Still for that read-out and setting: for RQIRMTSTI [9-mer peptide] the value was 0.1 h.

As for SLAIDAYPL [9-mer peptide], the “Stability T½ (h), peptide - Acar3” value was 2.1 h and the “Stability T½ of Acar3 in complex” value came to 126 min. As for SMFERDFHF [9-mer peptide], the “Stability T½ (h), peptide - Acar3” value under setting [1] is recorded as 0.2 h.

Turning to SMHFYGWSL [9-mer peptide], under setting [1], the “Stability T½ (h), peptide - Acar3” value is on record as 0.2 h.

Turning to SMMPEAMTI [9-mer peptide], the “Stability T½ of Acar3 in complex” value under setting [2] was determined as 54 min. In addition, under setting [1], the “Stability T½ (h), peptide - Acar3” value is recorded as 0.9 h. In the same order, the values of SQMGLSCAL [9-mer peptide] are 18 min and 0.3 h. For STEFIPNLF [9-mer peptide], the “Stability T½ of Acar3 in complex” value under setting [2] is 18 min. Under setting [1], the “Stability T½ (h), peptide - Acar3” value is on record as 0.3 h.

As to SVYFAAFAF [9-mer peptide], the “Stability T½ of Acar3 in complex” value under setting [2] was 96 min. For the same sequence, the “Stability T½ (h), peptide - Acar3” value under setting [1] is recorded as 1.6 h. On the same counts, the results for SYPPPPASF [9-mer peptide] are 12 min and 0.2 h.

With VIMWYNYLF [9-mer peptide], the “Stability T½ of Acar3 in complex” value under setting [2] turned out to be 18 min. Besides, the “Stability T½ (h), peptide - Acar3” value under setting [1] is recorded as 0.3 h.
